Test results: ChEMBL document CHEMBL3301562, “MMV Box screening against Plasmodium falciparum protein kinases and aminoacyl tRNA synthetases”
pIC50: −log10 of the molar value.

Legend:
Format in all cases: functional
Lysine--tRNA ligase = Lysine--tRNA ligase (Plasmodium falciparum (isolate 3D7), UniProt Q8IDJ8); experiment: MMV: KRS recombinant Plasmodium falciparum Lysyl-tRNA-synthetase, assay with yeast tRNA, ATP, and lysine and 3 uM MMV malaria box compound, assay read out with kinase glo as % inhibition.
Sequence of Lysine--tRNA ligase (Q8IDJ8 whole entry): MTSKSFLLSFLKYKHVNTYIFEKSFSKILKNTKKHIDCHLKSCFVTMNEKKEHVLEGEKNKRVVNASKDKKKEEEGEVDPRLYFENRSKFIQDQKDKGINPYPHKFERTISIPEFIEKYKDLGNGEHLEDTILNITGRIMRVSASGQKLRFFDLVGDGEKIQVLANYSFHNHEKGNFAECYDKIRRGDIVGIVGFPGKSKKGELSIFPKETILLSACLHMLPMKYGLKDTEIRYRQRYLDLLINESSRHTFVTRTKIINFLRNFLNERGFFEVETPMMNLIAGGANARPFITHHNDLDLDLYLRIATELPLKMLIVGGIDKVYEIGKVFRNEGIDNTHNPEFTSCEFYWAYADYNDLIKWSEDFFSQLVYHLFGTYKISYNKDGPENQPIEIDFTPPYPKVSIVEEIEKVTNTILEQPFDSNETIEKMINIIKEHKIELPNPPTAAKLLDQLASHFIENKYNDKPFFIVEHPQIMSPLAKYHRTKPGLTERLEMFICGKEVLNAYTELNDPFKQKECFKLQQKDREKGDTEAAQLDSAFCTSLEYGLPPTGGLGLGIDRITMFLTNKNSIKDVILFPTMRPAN

Proline--tRNA ligase = target: T1, Proline--tRNA ligase (Plasmodium falciparum (isolate 3D7), UniProt Q8I5R7); experiment: MMV: ProRS recombinant Plasmodium falciparum Prolyl-tRNA-synthetase, assay with yeast tRNA, ATP, and proline and 3 uM MMV malaria box compound, assay read out with kinase glo as % inhibition.
T1 sequence (Q8I5R7 whole entry): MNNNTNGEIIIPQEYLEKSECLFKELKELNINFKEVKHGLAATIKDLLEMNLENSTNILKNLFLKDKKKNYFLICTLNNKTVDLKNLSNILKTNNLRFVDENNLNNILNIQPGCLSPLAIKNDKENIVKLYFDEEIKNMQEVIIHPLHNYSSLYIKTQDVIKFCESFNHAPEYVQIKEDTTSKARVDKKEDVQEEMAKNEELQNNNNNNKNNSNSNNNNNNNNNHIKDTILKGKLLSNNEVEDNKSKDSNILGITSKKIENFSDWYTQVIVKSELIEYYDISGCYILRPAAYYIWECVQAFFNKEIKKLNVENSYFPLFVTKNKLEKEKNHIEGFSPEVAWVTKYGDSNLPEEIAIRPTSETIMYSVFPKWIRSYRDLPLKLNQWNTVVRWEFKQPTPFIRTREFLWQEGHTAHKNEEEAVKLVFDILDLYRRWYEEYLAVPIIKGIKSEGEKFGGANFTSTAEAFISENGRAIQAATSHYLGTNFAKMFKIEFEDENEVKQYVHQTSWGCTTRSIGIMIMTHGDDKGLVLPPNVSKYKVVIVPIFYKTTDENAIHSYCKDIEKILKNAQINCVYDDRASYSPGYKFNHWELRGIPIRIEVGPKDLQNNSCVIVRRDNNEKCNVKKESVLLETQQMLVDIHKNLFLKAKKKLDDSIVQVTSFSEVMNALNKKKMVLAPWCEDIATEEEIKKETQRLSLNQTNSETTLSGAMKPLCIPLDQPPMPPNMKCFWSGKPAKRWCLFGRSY

[1] = target: T2, Cdk-related protein kinase 6 (Plasmodium falciparum, UniProt O77239); experiment: Final concentrations were 1.5 uM ATP, 5 mM MnCl2, and 15 ug/ml PK6 in a buffer of 100 mM Tris-HCl (pH 7.5). 50 ug/mL MBP was provided as the substrate; 10 uM staurosporine was used as a control inhibitor. Incubation time was 3 hours and 40 minutes.The catalytic activity of each kinase was considered proportional to ATP consumed, as determined from measurements of residual [ATP] with the luciferase-based reagent Kinase-Glo (Promega) following incubation. Luminescence (proportional to residual [ATP]) was measured on the plate readers FLx800 (BioTek Instruments, Winooski, VT, USA) and MicroBeta2.
T2 sequence (O77239 whole entry): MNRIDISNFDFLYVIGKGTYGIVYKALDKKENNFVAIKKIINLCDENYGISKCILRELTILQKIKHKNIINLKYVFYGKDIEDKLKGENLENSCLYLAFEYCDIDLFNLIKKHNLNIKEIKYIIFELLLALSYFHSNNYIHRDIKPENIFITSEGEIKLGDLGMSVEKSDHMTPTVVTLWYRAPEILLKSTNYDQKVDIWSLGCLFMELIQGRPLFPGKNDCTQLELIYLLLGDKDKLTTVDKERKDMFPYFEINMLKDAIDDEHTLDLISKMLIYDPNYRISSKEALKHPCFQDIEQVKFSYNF

[2] = target: T3, Putative uncharacterized protein pk7 (Plasmodium falciparum, UniProt O96214); experiment: Final concentrations were 1 uM ATP, 2 mM DTT, 20 mM MgCl2, 2 mM MnCl2, 0.01% BSA, and 6 ug/ml PK7, in a buffer of 20 mM Tris-HCl (pH 7.5). The enzyme itself was the only substrate present (since autophosphorylation occurs); 100 uM 1NA-PP1 was used as a control inhibitor. Incubation time was 3 hours.
T3 sequence (O96214 whole entry): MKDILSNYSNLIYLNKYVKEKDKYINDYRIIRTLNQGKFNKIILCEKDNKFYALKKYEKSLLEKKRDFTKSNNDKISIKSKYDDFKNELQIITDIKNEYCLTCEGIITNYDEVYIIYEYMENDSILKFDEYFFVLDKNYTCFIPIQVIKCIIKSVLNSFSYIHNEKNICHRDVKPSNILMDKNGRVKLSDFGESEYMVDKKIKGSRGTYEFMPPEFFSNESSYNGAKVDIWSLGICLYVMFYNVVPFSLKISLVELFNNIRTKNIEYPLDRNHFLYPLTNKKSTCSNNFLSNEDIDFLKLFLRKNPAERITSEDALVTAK

[3] = target: T4, Mitogen-activated protein kinase (Plasmodium falciparum, UniProt Q25917); experiment: Final concentrations were 1 uM ATP, 0.5 mM DTT, 1 mM MgCl2, 0.5 mg/mL BSA, and 10 ug/ml MAP2 in a buffer of 50 mM HEPES (pH 7.0). 0.5 mg/mL histone III-S served as the substrate (13); 100 uM AMP-PNP, an ATP analog, was used as a control inhibitor. Incubation time was 4 hours.
T4 sequence (Q25917 whole entry): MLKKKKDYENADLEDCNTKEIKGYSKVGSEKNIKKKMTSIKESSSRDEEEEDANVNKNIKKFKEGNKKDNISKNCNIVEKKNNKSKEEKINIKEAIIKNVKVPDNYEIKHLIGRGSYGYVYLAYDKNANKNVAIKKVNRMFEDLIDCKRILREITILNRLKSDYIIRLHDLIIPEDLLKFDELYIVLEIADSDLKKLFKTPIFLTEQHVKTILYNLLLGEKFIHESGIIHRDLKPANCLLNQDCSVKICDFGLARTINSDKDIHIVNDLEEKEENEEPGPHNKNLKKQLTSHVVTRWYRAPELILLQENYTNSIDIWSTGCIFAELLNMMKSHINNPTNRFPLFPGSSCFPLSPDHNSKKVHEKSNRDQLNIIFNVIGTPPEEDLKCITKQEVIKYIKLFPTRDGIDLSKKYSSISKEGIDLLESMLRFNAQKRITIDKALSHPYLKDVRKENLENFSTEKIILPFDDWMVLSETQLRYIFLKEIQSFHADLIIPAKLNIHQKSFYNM

[4] = target: T5, Calcium-dependent protein kinase 4 (Plasmodium falciparum (isolate 3D7), UniProt Q8IBS5); experiment: MMV: CDPK4 Protein kinase inhibition assay using recombinant PfCDPK4, syntide2 peptide substrate, ATP and KinaseGlo to measure % inhibition at 1 uM MMV box compound.
T5 sequence (Q8IBS5 whole entry): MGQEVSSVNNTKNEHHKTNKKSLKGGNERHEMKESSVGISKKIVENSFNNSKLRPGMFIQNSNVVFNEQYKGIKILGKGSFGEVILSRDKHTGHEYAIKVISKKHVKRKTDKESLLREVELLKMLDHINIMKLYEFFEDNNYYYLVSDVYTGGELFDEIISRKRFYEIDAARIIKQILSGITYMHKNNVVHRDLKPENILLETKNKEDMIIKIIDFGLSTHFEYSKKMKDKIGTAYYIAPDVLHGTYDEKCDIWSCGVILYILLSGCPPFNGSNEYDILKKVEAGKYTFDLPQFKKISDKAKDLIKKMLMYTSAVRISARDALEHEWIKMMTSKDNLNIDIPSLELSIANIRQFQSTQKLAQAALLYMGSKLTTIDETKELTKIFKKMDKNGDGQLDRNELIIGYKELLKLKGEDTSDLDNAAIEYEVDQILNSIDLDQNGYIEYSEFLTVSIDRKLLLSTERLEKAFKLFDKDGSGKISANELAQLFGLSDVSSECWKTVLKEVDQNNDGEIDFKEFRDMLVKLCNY

[5] = target: Calcium-dependent protein kinase 1 (Plasmodium falciparum, UniProt P62344); experiment: MMV: CDPK1 Protein kinase inhibition assay using recombinant PfCDPK1, syntide 2 peptide substrate, ATP and KinaseGlo to measure % inhibition at 1 uM MMV box compound.
Sequence of Calcium-dependent protein kinase 1 (P62344 whole entry): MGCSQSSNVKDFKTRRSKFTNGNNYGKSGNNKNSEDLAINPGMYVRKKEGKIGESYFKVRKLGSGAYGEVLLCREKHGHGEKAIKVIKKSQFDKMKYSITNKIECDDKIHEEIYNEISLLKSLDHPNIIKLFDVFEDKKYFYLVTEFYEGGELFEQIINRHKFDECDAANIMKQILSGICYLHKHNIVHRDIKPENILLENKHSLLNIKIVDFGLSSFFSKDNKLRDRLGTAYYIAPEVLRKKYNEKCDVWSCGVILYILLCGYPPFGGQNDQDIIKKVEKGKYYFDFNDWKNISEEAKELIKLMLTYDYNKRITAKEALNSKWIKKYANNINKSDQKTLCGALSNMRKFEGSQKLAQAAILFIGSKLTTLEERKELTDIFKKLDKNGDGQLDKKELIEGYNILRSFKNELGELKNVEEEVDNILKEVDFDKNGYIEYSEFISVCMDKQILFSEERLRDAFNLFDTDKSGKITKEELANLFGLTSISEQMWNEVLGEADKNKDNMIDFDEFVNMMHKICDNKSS

SMILES	pIC50 (Lysine--tRNA ligase)	pIC50 (Proline--tRNA ligase)	pIC50 [1]	pIC50 [2]	pIC50 [3]	pIC50 [4]	pIC50 [5]
O=C(Nc1ccccc1O)c1ccc(Oc2cccc(C(=O)Nc3ccccc3O)c2)cc1	< 5.60	< 5.60	< 6.00	< 6.00	< 6.00	< 6.00	< 6.00
N=c1n(CCN2CCCCC2)c2ccccc2n1CC(O)c1cccc(Br)c1 (centres undefined)	< 5.60	< 5.60	< 6.00	< 6.00	< 6.00	< 6.00	< 6.00
COc1cccc(O)c1CN1CCC2(CCCN(Cc3ccc(F)cc3)C2)C1 (centres undefined)	< 5.60	< 5.60	< 6.00	< 6.00	< 6.00	< 6.00	< 6.00
O=C(NCc1ccco1)C1CCN(S(=O)(=O)c2ccc(Cl)cc2)CC1	< 5.60	< 5.60	< 6.00	< 6.00	< 6.00	< 6.00	< 6.00
FC(F)(F)c1ccc(Nc2nnnc3ccccc23)cc1	< 5.60	< 5.60	< 6.00	< 6.00	< 6.00	< 6.00	< 6.00
COc1cccc(NC(=O)Cn2c(C)c(C#N)c3ccccc32)c1	< 5.60	< 5.60	< 6.00	< 6.00	< 6.00	< 6.00	< 6.00
CC(C)=CCN1CCC(C(=O)Nc2ccc(-c3nc4ccccc4[nH]3)cc2)CC1	< 5.60	< 5.60	< 6.00	< 6.00	< 6.00	< 6.00	< 6.00
FC(F)(F)c1cccc(Nc2nc(-c3ccccc3)nc3ncccc23)c1	< 5.60	< 5.60	< 6.00	< 6.00	< 6.00	< 6.00	< 6.00
CCN1CCN(c2cc(C)c3cc(NC(=O)c4ccc(OC)c(OC)c4)ccc3n2)CC1	< 5.60	< 5.60	< 6.00	< 6.00	< 6.00	< 6.00	< 6.00
COc1ccc(C(=O)Nc2ccc(Cl)cc2C(=O)Nc2ccncc2)cc1	< 5.60	< 5.60	< 6.00	< 6.00	< 6.00	< 6.00	< 6.00
CN(C)c1ccc(-c2nc3cc(N)ccc3[nH]2)cc1	< 5.60	< 5.60	< 6.00	< 6.00	< 6.00	< 6.00	< 6.00
O=C(CSc1ccc2nnc(-c3cccc(F)c3)n2n1)Nc1ccc2c(c1)OCO2	< 5.60	< 5.60	< 6.00	< 6.00	< 6.00	< 6.00	< 6.00
Cc1c(C)n(Cc2ccc(F)cc2)c2ccc(C(=O)NCc3ccco3)cc12	< 5.60	< 5.60	< 6.00	< 6.00	< 6.00	< 6.00	< 6.00
O=C(Nc1cccc(C(F)(F)F)c1)c1cc(Cl)ccc1O	< 5.60	< 5.60	< 6.00	< 6.00	< 6.00	< 6.00	< 6.00
CCOc1cccc2sc(N(Cc3cccnc3)C(=O)C3CCCCC3)nc12	< 5.60	< 5.60	< 6.00	< 6.00	< 6.00	< 6.00	< 6.00
O=C(Nc1ccccc1O)c1ccc(-c2ccc(Cl)cc2Cl)o1	< 5.60	< 5.60	< 6.00	< 6.00	< 6.00	< 6.00	< 6.00
COc1ccccc1N1CCN(C(CNS(=O)(=O)c2ccc(Cl)cc2)c2cccnc2)CC1 (centres undefined)	< 5.60	< 5.60	< 6.00	< 6.00	< 6.00	< 6.00	< 6.00
